From the NIST ThermoML archive (doi:10.1021/acs.jced.8b00403)

Assay: wn = mass fraction of the nth substance listed
Conditions: 101.33 kPa, Liquid; for viscosity: Concentric cylinders viscometry; for mass density: Vibrating tube method

CC(O)CO (configuration not stated) [1,2-propanediol] + O
Conditions | mass density [kg/m3] | viscosity [mPa·s]
253.15 K, w1 = 0.5005 | 1062.5 | 84.94
253.15 K, w1 = 0.672 | 1070.8 | 204.36
253.15 K, w1 = 0.8044 | 1071.6 | 415.71
253.15 K, w1 = 0.9481 | 1068.2 | 1067
253.15 K, w1 = 1 | 1065.8 | 1772.4
258.15 K, w1 = 0.3312 | 1041.7 | 21.95
258.15 K, w1 = 0.5005 | 1059.8 | 55.34
258.15 K, w1 = 0.672 | 1067.6 | 128.54
258.15 K, w1 = 0.8044 | 1068.1 | 256.2
258.15 K, w1 = 0.9481 | 1064.7 | 638.89
258.15 K, w1 = 1 | 1062.2 | 1038.3
263.15 K, w1 = 0.3312 | 1040 | 15.59
263.15 K, w1 = 0.5005 | 1056.9 | 37.52
263.15 K, w1 = 0.672 | 1064.3 | 84.22
263.15 K, w1 = 0.8044 | 1064.5 | 164.62
263.15 K, w1 = 0.9481 | 1061 | 396.61
263.15 K, w1 = 1 | 1058.6 | 631.08
268.15 K, w1 = 0.198 | 1021.7 | 5.78
268.15 K, w1 = 0.3312 | 1038.15 | 11.45
268.15 K, w1 = 0.5005 | 1054 | 26.37
268.15 K, w1 = 0.672 | 1060.9 | 57.22
268.15 K, w1 = 0.8044 | 1061.1 | 109.37
268.15 K, w1 = 0.9481 | 1057.4 | 254.76
268.15 K, w1 = 1 | 1054.9 | 396.99
273.15 K, w1 = 0.0988 | 1009.8 | 2.877
273.15 K, w1 = 0.198 | 1020.8 | 4.552
273.15 K, w1 = 0.3312 | 1036.3 | 8.655
273.15 K, w1 = 0.5005 | 1051.1 | 19.12
273.15 K, w1 = 0.672 | 1057.5 | 40.16
273.15 K, w1 = 0.8044 | 1057.6 | 75.05
273.15 K, w1 = 0.9481 | 1053.8 | 169.13
273.15 K, w1 = 1 | 1051.3 | 258
283.15 K, w1 = 0.0988 | 1008.2 | 1.991
283.15 K, w1 = 0.198 | 1017.8 | 3.017
283.15 K, w1 = 0.3312 | 1031.2 | 5.306
283.15 K, w1 = 0.5005 | 1044.6 | 10.83
283.15 K, w1 = 0.672 | 1050.5 | 21.24
283.15 K, w1 = 0.8044 | 1050.4 | 38.42
283.15 K, w1 = 0.9481 | 1045.6 | 86.69
283.15 K, w1 = 1 | 1042.9 | 116.68
293.15 K, w1 = 0.0988 | 1005.7 | 1.454
293.15 K, w1 = 0.198 | 1014.5 | 2.171
293.15 K, w1 = 0.3312 | 1026.3 | 3.536
293.15 K, w1 = 0.5005 | 1038.1 | 6.741
293.15 K, w1 = 0.672 | 1043.2 | 12.58
293.15 K, w1 = 0.8044 | 1042.9 | 21.75
293.15 K, w1 = 0.9481 | 1038.2 | 45.66
293.15 K, w1 = 1 | 1035.5 | 59.75
303.15 K, w1 = 0.0988 | 1002.6 | 1.148
303.15 K, w1 = 0.198 | 1010.6 | 1.599
303.15 K, w1 = 0.3312 | 1021 | 2.503
303.15 K, w1 = 0.5005 | 1031.4 | 4.51
303.15 K, w1 = 0.672 | 1035.9 | 8.01
303.15 K, w1 = 0.8044 | 1035.4 | 13.28
303.15 K, w1 = 0.9481 | 1030.8 | 26.09
303.15 K, w1 = 1 | 1028.1 | 33.26
313.15 K, w1 = 0.0988 | 999 | 0.9194
313.15 K, w1 = 0.198 | 1006 | 1.241
313.15 K, w1 = 0.3312 | 1015.3 | 1.858
313.15 K, w1 = 0.5005 | 1024.5 | 3.166
313.15 K, w1 = 0.672 | 1028.4 | 5.398
313.15 K, w1 = 0.8044 | 1027.8 | 8.638
313.15 K, w1 = 0.9481 | 1023.2 | 16
313.15 K, w1 = 1 | 1020.6 | 19.92
323.15 K, w1 = 0.0988 | 994.4 | 0.7541
323.15 K, w1 = 0.198 | 1000.8 | 0.9933
323.15 K, w1 = 0.3312 | 1009.2 | 1.436
323.15 K, w1 = 0.5005 | 1017.4 | 2.345
323.15 K, w1 = 0.672 | 1020.8 | 3.852
323.15 K, w1 = 0.8044 | 1020.1 | 5.938
323.15 K, w1 = 0.9481 | 1015.6 | 10.4
323.15 K, w1 = 1 | 1013 | 12.68
333.15 K, w1 = 0.0988 | 989.3 | 0.6304
333.15 K, w1 = 0.198 | 995.4 | 0.8167
333.15 K, w1 = 0.3312 | 1002.7 | 1.145
333.15 K, w1 = 0.5005 | 1010 | 1.802
333.15 K, w1 = 0.672 | 1013 | 2.852
333.15 K, w1 = 0.8044 | 1012.2 | 4.247
333.15 K, w1 = 0.9481 | 1007.8 | 7.094
333.15 K, w1 = 1 | 1005.3 | 8.498
343.15 K, w1 = 0.0988 | 983.5 | 0.5375
343.15 K, w1 = 0.198 | 989.2 | 0.6869
343.15 K, w1 = 0.3312 | 996 | 0.9408
343.15 K, w1 = 0.5005 | 1002.3 | 1.425
343.15 K, w1 = 0.672 | 1004.9 | 2.188
343.15 K, w1 = 0.8044 | 1004.1 | 3.161
343.15 K, w1 = 0.9481 | 999.8 | 5.053
343.15 K, w1 = 1 | 997.7 | 5.95
353.15 K, w1 = 0.0988 | 977.2 | 0.4666
353.15 K, w1 = 0.198 | 982.5 | 0.5856
353.15 K, w1 = 0.3312 | 988.9 | 0.7888
353.15 K, w1 = 0.5005 | 994.6 | 1.162
353.15 K, w1 = 0.672 | 996.9 | 1.733
353.15 K, w1 = 0.8044 | 996 | 2.433
353.15 K, w1 = 0.9481 | 991.9 | 3.734
353.15 K, w1 = 1 | 989.5 | 4.332
